Reference: patent US20230212274A1, “METHOD FOR TREATING ASTHMA OR ALLERGIC DISEASE” (THE CHILDREN'S MEDICAL CENTER CORPORATION, priority 2020, published 2023)
“Also recorded” adds a separate entry of the source.

Experiments:
[1] = tested on: Notch4 expression on Treg cells; test: Notch4 expression on peripheral blood Treg cells of a severe asthmatic subject before and after therapy; format: in vivo, human; details: post therapy
Text: In contrast, Notch4 expression on circulating CD4^+ Teff cells was low and remained relatively flat as a function of asthma severity (FIG. 6B). Also, expression of Notchl-3 on Treg and Teff cells was not increased in asthmatics as compared to control subjects (FIGS. 17A-17I). Notch4 expression was restricted to the Helios^low iTreg cell subpopulation (FIG. 6C). […] Also, there were increased concentrations of GDF 15 in the sera of moderate and severe asthmatics that positively correlated with circulating Treg cell Notch4 expression (FIG. 6F).

GDF15 = test: in vitro co-culture of GDF15-expressing Notch4high Treg cells with naive ILC2 cells; format: cell-based, mouse; details: Treg cells from lungs of OVA+UFP-treated mice
Experimental: (§1) FIGS. 5A-5L show Notch4 promotes ILC2 activation via a GDF15-dependent mechanism (FIG. 5A) Flow cytometric analysis and frequencies of IL13^+ ILC2 (Lineage^- T1/ST2^+ cells) in mice of respective genotypes treated as indicated. (FIG. 5B and FIG. 5C) In vitro suppression assays of ILC2 cells isolated from OVA+UFP-treated Foxp3^YFPCre mice and incubated with Treg cells of mice of the respective genotypes treated as indicated. Additional treatment of in vitro cultures with isotype control or anti-Notch4 mAb is also indicated. (FIG. 5D) Flow cytometric analysis and frequencies of GDF15^+ lung Treg cells of mice of the respective genotypes treated as indicated. (FIG. 5E) Flow cytometric analysis and frequencies of IL-13 expression in cultures of naive ILC2 stimulated with IL-33, GDF15 or both. (FIG. 5F) IL-13 expression in naive ILC2 incubated with Notch4^high Treg cells from OVA+UFP treated mice without or with blocking GDF15 peptide. (FIG. 5G and FIG. 5H) AHR and IL13^+ ILC2 frequencies in Foxp3^YFPCre mice treated as indicated and challenged in the presence of carrier protein or GDF15 blocking peptide. (FIG. 5I to FIG. 5K) AHR and frequencies of the indicated lung cell types in sham or OVA+UFP sensitized and challenged Foxp3^YFPCre and Foxp3^YFPCreNotch4^Δ/Δ mice treated with recombinant GDF15, as indicated. Each symbol represents an independent sample. […]

[2] = tested on: allergic airway inflammation; test: OVA+UFP allergic airway inflammation in mice, intra-tracheal instillation; format: in vivo, mouse
Experimental: FIGS. 5A-5L show Notch4 promotes ILC2 activation via a GDF15-dependent mechanism (FIG. 5A) Flow cytometric analysis and frequencies of IL13^+ ILC2 (Lineage^- T1/ST2^+ cells) in mice of respective genotypes treated as indicated. (FIG. 5B and FIG. 5C) In vitro suppression assays of ILC2 cells isolated from OVA+UFP-treated Foxp3^YFPCre mice and incubated with Treg cells of mice of the respective genotypes treated as indicated. Additional treatment of in vitro cultures with isotype control or anti-Notch4 mAb is also indicated. (FIG. 5D) Flow cytometric analysis and frequencies of GDF15^+ lung Treg cells of mice of the respective genotypes treated as indicated. (FIG. 5E) Flow cytometric analysis and frequencies of IL-13 expression in cultures of naive ILC2 stimulated with IL-33, GDF15 or both. (FIG. 5F) IL-13 expression in naive ILC2 incubated with Notch4^high Treg cells from OVA+UFP treated mice without or with blocking GDF15 peptide. (FIG. 5G and FIG. 5H) AHR and IL13^+ ILC2 frequencies in Foxp3^YFPCre mice treated as indicated and challenged in the presence of carrier protein or GDF15 blocking peptide. (FIG. 5I to FIG. 5K) AHR and frequencies of the indicated lung cell types in sham or OVA+UFP sensitized and challenged Foxp3^YFPCre and Foxp3^YFPCreNotch4^Δ/Δ mice treated with recombinant GDF15, as indicated. Each symbol represents an independent sample. Numbers in flow plots indicate percentages. Error bars indicate SEM. Statistical tests: two-way ANOVA with Sidak’s post hoc analysis (FIGS. 5A to 5D, 5G and 5I); One-way ANOVA with Dunnett’s post hoc analysis (FIGS. 5E and 5F, 5H and 5J). *P<0.05, ***P<0.001, ****P<0.0001. Data representative of two or three independent experiments. n=5-15 mice per group.
(FIG. 18A) Representative PAS-stained sections of lung tissues isolated from Foxp3^YFPCre and Foxp3^YFPCreNotch4^Δ/Δ with either PBS or OVA+UFP, the latter either alone or supplemented with GDF15, as indicated (200X magnification). (FIG. 18B) Inflammation score for the respective mouse groups. (FIG. 18C) Frequencies of ILC in the lungs of respective mouse groups. (FIG. 18D) IL-4, IL-13, and IL-17 expression in lung Foxp3^-CD4^+ Teff cells in the respective groups. (FIG. 18E) IL-4, IL-13, and IL-17 expression in lung Foxp3^+CD4^+ Treg cells in the respective groups. Error bars indicate SEM. Statistical tests. One-way ANOVA with Dunnett’s post hoc analysis. (FIGS. 18A-18E) **P<0.01, ***P<0.001, ****P<0.0001. Data representative of two or three independent experiments. n=10 mice per group.
(FIG. 19A) Representative PAS-stained sections of lung tissues isolated from Foxp3^YFPCre, treated with GDF15 blocking peptide segregated into PBS, or OVA+UFP-treated groups (200X magnification). (FIG. 19B) Inflammation score for the respective mouse groups. […]

[3] = tested on: Notch4 expression on differentiating iTreg cells; test: in vitro iTreg cell differentiation: OT-II T cells co-cultured with OVA323-339- or OVA323-339+UFP-pulsed alveolar macrophages, Notch4 by flow cytometry; format: cell-based, mouse; details: for Notch4 expression on differentiating iTreg cells: cytokine added to co-cultures with OVA323-339 / OVA323-339+UFP-pulsed alveolar macrophages
Text: (§2) FIGS. 1A-1H show Notch4 expression on lung Treg cells in allergic airway inflammation. (FIG. 1A) RT-PCR of Notchl-4 transcripts in lung Treg and Teff cells isolated from PBS, OVA and OVA+UFP mouse groups. (FIG. 1B and FIG. 1C) Flow cytometric analysis, cell frequencies and mean fluorescence intensity (MFI) of Notch4 expression on lung Treg and Teff cells in the respective mouse groups. (FIG. 1D and FIG. 1E) Flow cytometric analysis and cell frequencies of Notch4 expression on OT-II^+CD4^+Foxp3^+ T cells generated in co-cultures with sham or OVA323-339+UFP-pulsed alveolar macrophages without or with IL-6 or anti-IL-6R mAb. (FIG. 1F) Flow cytometric analysis and cell frequencies of Notch4 expression in Helios^high and Helios^low lung Treg cells isolated from the respective mouse groups. (FIG. 1G) Flow cytometric analysis and cell frequencies of Notch4 expression on in vitro differentiated Treg cells derived from naive CD4^+ T cells isolated from Foxp3^YFPCre, Foxp3^YFPCreIl6r^Δ/Δ and Foxp3^YFPCreStat3^Δ/Δ mice and either untreated or treated with IL-6. (FIG. 1H) ChIP assays for the binding of STAT3 and control (IgG) antibodies to the Notch4 promoter in lung Treg cells of OVA+UFP-treated Foxp3^YFPCre, and Foxp3^YFPCreStat3^Δ/Δ mice. Each symbol represents one mouse. Numbers in flow plots indicate percentages. Error bars indicate SEM. Statistical tests for all panels: One-way ANOVA with Dunnett’s post hoc analysis. *P<0.05, **P<0.01, ***P<0.001, ****P<0.0001. Data representative of two or three independent experiments. (FIGS. 1A, 1D to 1F) n=5, (FIGS. 1B and 1C) n=15 and (FIGS. 1G and 1H) n=6 replicates per group.
FIGS. 7A-7E show Notch4 expression on lung Treg cells in allergic airway inflammation. (FIGS. 7A to 7C) Flow cytometric analysis, cell frequencies and mean fluorescence intensity (MFI) of Notch1, 2 and 3 expression on lung Treg and Teff cells in the respective mouse groups. (FIG. 7D) Cell frequencies of Notch4 expression on OT-II^+CD4^+Foxp3^+ T cells generated in co-cultures with sham or OVA323-339+UFP-pulsed alveolar macrophages without or with IL-1B, IL-25, IL-33, TSLP or TNFa. (FIG. 7E) ChIP assays for the binding of STAT3 and control (IgG) antibodies to the Notch1, 2 and 3 promoters in lung Treg cells of OVA+UFP-treated Foxp3^YFPCre, and Foxp3^YFPCreStat3^Δ/Δ mice. Each symbol represents one mouse. Numbers in flow plots indicate percentages. Error bars indicate SEM. Statistical tests for all panels: One-way ANOVA with Dunnett’s post hoc analysis. *P<0.05, **P<0.01, ***P<0.001, ****P<0.0001. Data representative of two or three independent experiments. N = 5-10 replicas per group.
To examine signals driving the induction of Notch4 on iTreg cells, the inventors employed an in vitro iTreg cell differentiation system in which OT-II T cell receptor (TCR) transgenic T cells, specific for the OVA323-339 peptide, were incubated with isolated primary alveolar macrophages (AM). […] Chromatin immunoprecipitation assays confirmed IL-6-dependent inducible binding of STAT3 to the Notch4 promoter in Treg cells, but not to those of Notch1, Notch2 or Notch3, which was abrogated by Stat3 deletion (FIG. 1I; […]).

[4] = tested on: Notch4 on differentiating Treg cells; test: antigen presenting cell-free in vitro iTreg cell differentiation (anti-CD3+anti-CD28 mAbs, TGF-β1); format: cell-based, mouse; details: naive T cells
Text: as §2, with “Statistical tests for all panels: One-way ANOVA with Dunnett’s post hoc analysis. *P<0.05, **P<0.01, ***P<0.001, ****P<0.0001. Data representative of two or three independent experiments. (FIGS. 1A, 1D to 1F) n=5, (FIGS. 1B and 1C) n=15 and (FIGS. 1G and 1H) n=6 replicates per group.” left out

[5] = tested on: IL-13 expression in naive ILC2; test: in vitro cultures of ILC2 derived from naive mice stimulated with GDF15, IL-33 or both; format: cell-based, mouse
Experimental: as §1

[6] = OVA+UFP treated Foxp3YFPCreNotch4Δ/Δ mice, intra-tracheal instillation

Molecule: Tocilizumab: anti-IL-6R mAb (anti-IL-6Ra chain mAb)
- Notch4 expression on patient Treg cells [1]: decreased Notch4 expression
- Notch4 expression on patient Treg cells ([1]; listed as tocilizumab): substantially attenuated Notch4 expression

Molecule: GDF15 blocking peptide: GDF15 inhibitory peptide, KTSLHRLKPDTVPAPC (SEQ ID NO: 1; amino acids 258-273 of the full length GDF15 gene product) (listed as Homo sapiens)
- upregulation of IL13 expression in naive ILC2 by Notch4high Treg cells (GDF15): reversed
- AHR, tissue inflammation, IL-4 and IL-13 expression in Teff cells (allergic airway inflammation) ([2]; OVA+UFP treated Foxp3YFPCre mice, instillation): downregulated the aforementioned changes; also recorded: attenuates allergic airway inflammation

Molecule: TNFa
- Notch4 expression on differentiating iTreg cells [3]: not

Molecule: TSLP: cytokine added to cell cultures
- Notch4 expression on differentiating iTreg cells [3]: not

Molecule: IL-1β: cytokine added to cell cultures
- Notch4 expression on differentiating iTreg cells [3]: not

Molecule: IL-6: interleukin-6 cytokine added to cell cultures
- Notch4 expression on differentiating iTreg cells [3]: super-induction of Notch4 expression
- Notch4 on differentiating Treg cells [4]: induced Notch4 on differentiating Treg cells

B1: IL-25: cytokine added to cell cultures (protein, UniProt Q9H293 33-177, looked up)
Interleukin-25: YSHWPSCCPSKGQDTSEELLRWSTVPVPPLEPARPNRHPESCRASEDGPLNSRAISPWRYELDRDLNRLPQDLYHARCLCPHCVSLQTGSHMDPRGNSELLYHNQTVFYRRPCHGEKGTHKGYCLERRLYRVSLACVCVRPRVMG
- Notch4 expression on differentiating iTreg cells [3]: not

B2: IL-33: cytokine added to cell cultures (protein, UniProt O95760 1-270, looked up)
Interleukin-33: MKPKMKYSTNKISTAKWKNTASKALCFKLGKSQQKAKEVCPMYFMKLRSGLMIKKEACYFRRETTKRPSLKTGRKHKRHLVLAACQQQSTVECFAFGISGVQKYTRALHDSSITGISPITEYLASLSTYNDQSITFALEDESYEIYVEDLKKDEKKDKVLLSYYESQHPSNESGDGVDGKMLMVTLSPTKDFWLHANNKEHSVELHKCEKPLPDQAFFVLHNMHSNCVSFECKTDPGVFIGVKDNHLALIKVDSSENLCTENILFKLSET
- Notch4 expression induced by IL-6 ([3]; added together with IL-6): further upregulated the expression of Notch4
- Notch4 expression on differentiating iTreg cells [3]: did not induce Notch4 on its own

B3: recombinant GDF15: recombinant cytokine growth and differentiation factor 15, secreted ligand of the TGF-beta superfamily (protein, UniProt Q99988 195-308, looked up)
Growth/differentiation factor …: ARARNGDHCPLGPGRCCRLHTVRASLEDLGWADWVLSPREVQVTMCIGACPSQFRAANMHAQIKTSLHRLKPDTVPAPCCVPASYNPMVLIQKTDTGVSLQTYDDLLAKDCHCI
- IL-13 expression in ILC2 derived from naive mice ([5]; alone): upregulated IL-13 expression alone
- IL-13 expression in ILC2 derived from naive mice ([5]; in combination with IL-33): especially in synergy with IL-33
- AHR and tissue inflammation [2, 6]: upregulated the AHR and tissue inflammation
- IL-4 and IL-13 expression in Teff cells [2, 6]: increasing IL-4 and IL-13 expression in Teff cells
- AHR and tissue inflammation ([2]; OVA+UFP treated Foxp3YFPCreNotch4Δ/Δ mice, intra-tracheal instillation, listed as GDF15): restores airway inflammation
